Source: article PMC6930223 (Scientific Reports, 2019)

Biological target: hERG1a/1b current (Homo sapiens, UniProt Q12809)
Description: All working solutions were sterile-filtered, stored at −20 °C and thawed to room temperature before use.
Prior to electrophysiology study, the HEK293-hERG1a/1b cells were first grown in complete medium without selection antibiotics for 6 days. Approximately 5.0 × 10^5 cells were then plated onto an uncoated 96-mm cell culture dish for a maximum of 3 days. […] The cell suspension was then transferred into a 15-ml polypropylene tube and centrifuged at 100 × g for 3 min. Subsequently, the cell pellet was resuspended in extracellular solution to obtain a final density of 2 × 10^6–3 × 10^6 cells/ml and incubated on ice for 20 min to allow cell recovery. The electrophysiology studies were performed using NPC®-1 chips (Nanion Technologies, Germany) and Port-a-Patch system (Nanion Technologies, Germany) following manufacturer’s instructions, within the next 2 h. For characterization and determination of the hERG1a/1b current inhibition, a series of voltage protocols were applied as published previously.
The hERG1a/1b current was recorded in cells achieving whole-cell configuration. Briefly, a single cell was first held at −80 mV, the theoretical cardiac resting membrane potential, on the aperture of the NPC-1 chip (Nanion Technologies, Germany). To characterize the I-V relationship, the cell was depolarized to test potentials ranging from −60 mV to +50 mV for 4 s in […], followed by a 5-s step to −50 mV before returning to −80mV.
To determine the pharmacological effects of the HEK293-hERG1a/1b cells, the cells were perfused with test compound solutions using an external perfusion system. […] The mean of six successive Itail was recorded for each test concentration. Four independent experiments were conducted to derive the dose-response curve.

CNCCC(Oc1ccc(C(F)(F)F)cc1)c1ccccc1 (stereo not shown) [fluoxetine, reference compound]
Hill coefficient (h): 1.19
